In publication PMC4503722, “Novel Phenotypic Outcomes Identified for a Public Collection of Approved Drugs from a Publicly Accessible Panel of Assays” (PLoS ONE, 2015):

What was measured:
hGSK3b = target: T1, hGSK3b (Homo sapiens, UniProt P49841); assay: Cerep LANCE kinase assay hGSK3b (S1 assay 34); format: biochemical; details: for hGSK3b LANCE IC50/EC50: assay number 34
T1 construct: purchased Cerep (LANCE kinase assay platform, contract assay)

[1] = test system: ECFC/ADSC co-culture cell nuclei number
hJAK2 = target: T2, hJAK2 (Homo sapiens, UniProt O60674); assay: Cerep LANCE kinase assay hJAK2 (S1 assay 33); format: biochemical; details: for hJAK2 LANCE IC50/EC50: assay number 33
T2 construct: purchased Cerep (LANCE kinase assay platform, contract assay)
T2 sequence (O60674 whole entry): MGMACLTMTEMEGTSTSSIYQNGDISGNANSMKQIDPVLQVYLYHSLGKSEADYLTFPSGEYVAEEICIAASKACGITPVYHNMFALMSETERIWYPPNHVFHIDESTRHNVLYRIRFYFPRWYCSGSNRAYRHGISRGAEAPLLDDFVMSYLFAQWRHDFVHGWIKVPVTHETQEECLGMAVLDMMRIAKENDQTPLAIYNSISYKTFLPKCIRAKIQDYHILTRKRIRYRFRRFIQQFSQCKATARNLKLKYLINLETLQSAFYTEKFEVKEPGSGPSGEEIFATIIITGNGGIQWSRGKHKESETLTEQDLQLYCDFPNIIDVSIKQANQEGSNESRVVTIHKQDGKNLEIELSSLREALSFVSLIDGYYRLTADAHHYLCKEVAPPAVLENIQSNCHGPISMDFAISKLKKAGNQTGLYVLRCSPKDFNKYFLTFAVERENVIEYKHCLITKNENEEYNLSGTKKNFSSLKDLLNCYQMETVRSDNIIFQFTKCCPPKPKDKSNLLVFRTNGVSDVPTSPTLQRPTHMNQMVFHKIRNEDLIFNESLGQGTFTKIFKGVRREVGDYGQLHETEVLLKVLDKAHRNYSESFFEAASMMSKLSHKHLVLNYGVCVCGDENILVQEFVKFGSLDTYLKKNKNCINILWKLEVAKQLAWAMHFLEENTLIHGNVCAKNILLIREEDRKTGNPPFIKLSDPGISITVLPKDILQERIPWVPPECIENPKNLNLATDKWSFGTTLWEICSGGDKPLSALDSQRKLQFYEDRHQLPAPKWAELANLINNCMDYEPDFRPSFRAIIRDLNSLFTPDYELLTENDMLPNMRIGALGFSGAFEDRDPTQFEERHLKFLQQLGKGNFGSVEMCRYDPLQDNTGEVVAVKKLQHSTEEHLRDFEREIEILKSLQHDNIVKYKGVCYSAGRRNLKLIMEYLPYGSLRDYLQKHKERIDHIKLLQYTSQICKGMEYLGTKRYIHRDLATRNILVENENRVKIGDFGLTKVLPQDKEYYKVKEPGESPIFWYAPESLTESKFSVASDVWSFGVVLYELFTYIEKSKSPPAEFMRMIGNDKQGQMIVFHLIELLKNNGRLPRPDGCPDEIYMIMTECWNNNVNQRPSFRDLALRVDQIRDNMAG

hp70S6K1 (RPS6KB1) = target: T3, hp70S6K1 (RPS6KB1) (Homo sapiens, UniProt P23443); assay: Cerep LANCE kinase assay hp70S6K1 (S1 assay 31); format: biochemical; details: for hp70S6K1 LANCE IC50/EC50: assay number 31
T3 construct: purchased Cerep (LANCE kinase assay platform, contract assay)
T3 sequence (P23443 whole entry): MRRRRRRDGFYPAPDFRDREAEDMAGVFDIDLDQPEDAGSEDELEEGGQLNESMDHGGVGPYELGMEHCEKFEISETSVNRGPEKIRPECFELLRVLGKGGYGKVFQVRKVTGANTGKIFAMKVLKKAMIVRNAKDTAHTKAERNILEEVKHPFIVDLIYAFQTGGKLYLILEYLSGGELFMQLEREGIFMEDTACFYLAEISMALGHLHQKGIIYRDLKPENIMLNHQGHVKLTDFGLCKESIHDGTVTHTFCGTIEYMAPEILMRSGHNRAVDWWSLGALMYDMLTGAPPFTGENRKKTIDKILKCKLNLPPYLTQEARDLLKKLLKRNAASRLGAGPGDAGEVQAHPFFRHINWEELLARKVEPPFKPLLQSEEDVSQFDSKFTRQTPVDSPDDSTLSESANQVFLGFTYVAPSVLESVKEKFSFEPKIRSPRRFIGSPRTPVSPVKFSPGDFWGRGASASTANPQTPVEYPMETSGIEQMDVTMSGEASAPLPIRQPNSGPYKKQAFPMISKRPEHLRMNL

[2] = test system: alkaline phosphatase (ALP) activity in C2C12 cells; format: cell-based; details: concentration response; for WntCondMedia_Alk Phos C2C12 IC50/EC50: assay number 6
hKDR = target: T4, hKDR (Homo sapiens, UniProt P35968); assay: Cerep LANCE kinase assay hKDR (S1 assay 32); format: biochemical; details: for hKDR LANCE IC50/EC50: assay number 32
T4 construct: purchased Cerep (LANCE kinase assay platform, contract assay)
T4 sequence (P35968 20-1356): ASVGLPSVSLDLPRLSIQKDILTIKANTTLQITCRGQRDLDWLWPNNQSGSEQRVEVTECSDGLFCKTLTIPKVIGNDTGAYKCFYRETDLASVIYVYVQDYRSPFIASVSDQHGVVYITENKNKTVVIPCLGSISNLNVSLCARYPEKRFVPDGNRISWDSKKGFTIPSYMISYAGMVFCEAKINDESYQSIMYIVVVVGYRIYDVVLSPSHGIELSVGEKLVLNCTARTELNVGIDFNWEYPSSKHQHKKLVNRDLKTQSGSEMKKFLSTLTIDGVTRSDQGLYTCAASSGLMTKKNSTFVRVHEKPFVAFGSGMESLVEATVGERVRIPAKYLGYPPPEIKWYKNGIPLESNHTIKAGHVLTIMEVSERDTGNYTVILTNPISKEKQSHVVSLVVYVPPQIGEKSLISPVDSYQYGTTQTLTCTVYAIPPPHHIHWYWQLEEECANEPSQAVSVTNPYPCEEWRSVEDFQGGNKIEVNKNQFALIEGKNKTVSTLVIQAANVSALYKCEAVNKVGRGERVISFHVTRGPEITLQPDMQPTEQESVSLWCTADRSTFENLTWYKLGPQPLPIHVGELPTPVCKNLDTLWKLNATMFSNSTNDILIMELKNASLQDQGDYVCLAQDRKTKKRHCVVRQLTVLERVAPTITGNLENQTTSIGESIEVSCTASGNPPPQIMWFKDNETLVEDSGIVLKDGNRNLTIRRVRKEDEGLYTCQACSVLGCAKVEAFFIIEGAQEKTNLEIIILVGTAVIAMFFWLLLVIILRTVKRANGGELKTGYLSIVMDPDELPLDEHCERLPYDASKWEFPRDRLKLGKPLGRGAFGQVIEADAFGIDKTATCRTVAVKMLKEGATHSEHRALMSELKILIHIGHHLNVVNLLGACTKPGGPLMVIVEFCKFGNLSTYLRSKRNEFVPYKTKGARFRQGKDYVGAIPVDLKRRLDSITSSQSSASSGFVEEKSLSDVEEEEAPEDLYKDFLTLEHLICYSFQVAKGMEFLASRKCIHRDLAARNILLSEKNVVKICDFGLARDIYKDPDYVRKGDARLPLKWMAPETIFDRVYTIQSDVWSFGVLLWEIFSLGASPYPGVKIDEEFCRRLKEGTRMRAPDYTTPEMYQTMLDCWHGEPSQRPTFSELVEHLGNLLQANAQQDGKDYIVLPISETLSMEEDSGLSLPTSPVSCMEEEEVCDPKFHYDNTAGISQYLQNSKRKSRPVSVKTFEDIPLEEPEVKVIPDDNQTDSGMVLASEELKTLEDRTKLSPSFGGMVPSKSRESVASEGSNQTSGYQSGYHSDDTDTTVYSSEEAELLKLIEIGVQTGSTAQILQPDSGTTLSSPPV

[3] = test system: nuclear β-catenin in C2C12 cells; assay: cells; format: cell-based; details: concentration response; for WntCondMedia_bCatenin C2C12 IC50/EC50: assay number 5
[4] = test system: endothelial tube formation in co-cultures of ECFCs and ADSCs treated with VEGF; assay: cells; format: cell-based, human
HeLa cells = assay: cells; format: cell-based; details: for Hela CellCycMod PI 2N IC50/EC50: assay number 14; for Hela CellCycMod PI 4N IC50/EC50: assay number 16; for Hela CellCycMod PI MI IC50/EC50: assay number 17; for Hela CellCycMod PI Cell Number IC50/EC50: assay number 18; for Hela CellCycMod PI S Phase IC50/EC50: assay number 15
hFLT3 = target: T5, hFLT3 (Homo sapiens, UniProt P36888); assay: Cerep LANCE kinase assay hFLT3 (S1 assay 35); format: biochemical; details: for hFLT3 LANCE IC50/EC50: assay number 35
T5 construct: purchased Cerep (LANCE kinase assay platform, contract assay)
T5 sequence (P36888 27-993): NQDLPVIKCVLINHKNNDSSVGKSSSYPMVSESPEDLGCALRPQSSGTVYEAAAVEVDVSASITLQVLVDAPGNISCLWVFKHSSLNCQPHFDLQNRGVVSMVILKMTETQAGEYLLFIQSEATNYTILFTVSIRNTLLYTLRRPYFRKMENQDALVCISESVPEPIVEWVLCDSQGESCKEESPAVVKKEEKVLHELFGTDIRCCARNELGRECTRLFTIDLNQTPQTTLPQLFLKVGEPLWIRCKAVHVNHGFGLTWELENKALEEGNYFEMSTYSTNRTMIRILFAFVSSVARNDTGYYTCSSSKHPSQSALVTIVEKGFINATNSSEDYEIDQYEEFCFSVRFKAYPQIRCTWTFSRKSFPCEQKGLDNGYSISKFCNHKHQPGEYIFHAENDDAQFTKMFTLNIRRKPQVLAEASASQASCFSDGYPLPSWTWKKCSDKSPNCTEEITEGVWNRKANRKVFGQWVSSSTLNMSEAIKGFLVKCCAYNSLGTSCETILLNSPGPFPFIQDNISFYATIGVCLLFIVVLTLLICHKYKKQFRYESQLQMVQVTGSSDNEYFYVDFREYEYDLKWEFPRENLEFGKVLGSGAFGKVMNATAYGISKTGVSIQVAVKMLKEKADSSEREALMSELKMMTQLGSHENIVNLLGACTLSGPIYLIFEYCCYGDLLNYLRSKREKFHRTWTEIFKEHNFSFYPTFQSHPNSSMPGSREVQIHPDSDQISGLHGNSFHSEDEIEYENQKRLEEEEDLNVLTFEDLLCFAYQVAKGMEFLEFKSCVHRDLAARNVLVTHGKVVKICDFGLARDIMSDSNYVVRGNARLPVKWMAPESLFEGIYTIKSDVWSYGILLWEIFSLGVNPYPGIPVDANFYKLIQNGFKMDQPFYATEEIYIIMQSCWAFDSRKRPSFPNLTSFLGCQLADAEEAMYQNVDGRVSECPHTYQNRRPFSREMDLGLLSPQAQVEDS

INS-1E cells = assay: cells; format: cell-based, rat; details: 5 mM glucose;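 note: secreted insulin quantified by homogeneous immunoassay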
DLD-1 = assay: cells; format: cell-based; details: basal
HT-29 = assay: cells; format: cell-based; details: basal; for Basal_Viability ATP HT-29 IC50/EC50: assay number 28
Colo320 = assay: cells; format: cell-based; details: basal; for Basal_Viability ATP Colo 320 IC50/EC50: assay number 27
RKO = assay: cells; format: cell-based; details: basal; for Basal_Viability ATP RKO IC50/EC50: assay number 29
SW480 = assay: cells; format: cell-based; details: basal
HCT116 = assay: cells; format: cell-based; details: basal
[5] = test system: HCT116 cells treated with a GSK3β inhibitor; assay: cells; format: cell-based; details: for GSK3b inh pretreated_Viability ATP HCT116 IC50/EC50: assay number 26, GSK3b inhibitor pretreated
SNU-C1 = assay: cells; format: cell-based; details: basal; for Basal_Viability ATP SNU-C1 IC50/EC50: assay number 30

T1 sequence (P49841 whole entry): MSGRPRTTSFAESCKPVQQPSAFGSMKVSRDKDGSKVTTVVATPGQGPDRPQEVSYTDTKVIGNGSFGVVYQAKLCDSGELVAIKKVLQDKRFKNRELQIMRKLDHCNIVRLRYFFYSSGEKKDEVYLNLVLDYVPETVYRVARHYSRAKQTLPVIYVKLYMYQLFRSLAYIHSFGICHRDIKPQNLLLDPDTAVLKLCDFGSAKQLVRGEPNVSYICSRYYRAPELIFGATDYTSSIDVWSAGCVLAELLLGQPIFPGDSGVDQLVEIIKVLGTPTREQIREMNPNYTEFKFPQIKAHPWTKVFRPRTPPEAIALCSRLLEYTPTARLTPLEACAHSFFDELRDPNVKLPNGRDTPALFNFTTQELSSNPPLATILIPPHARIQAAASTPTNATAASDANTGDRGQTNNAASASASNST

Compound	IC50/EC50, hGSK3b LANCE (assay number 34) (hGSK3b) [µM]	IC50/EC50, hJAK2 LANCE (assay number 33) (hJAK2) [µM]	IC50/EC50, hp70S6K1 LANCE (assay number 31) (hp70S6K1 (RPS6KB1)) [µM]	IC50/EC50, WntCondMedia_Alk Phos C2C12 (assay number 6) [2] [µM]	IC50/EC50, hKDR LANCE (assay number 32) (hKDR) [µM]	IC50/EC50, WntCondMedia_bCatenin C2C12 (assay number 5) [3] [µM]	IC50/EC50, Hela CellCycMod PI 2N (assay number 14) (HeLa cells) [µM]	IC50/EC50, Hela CellCycMod PI 4N (assay number 16) (HeLa cells) [µM]	IC50/EC50, Hela CellCycMod PI MI (assay number 17) (HeLa cells) [µM]	IC50/EC50, Hela CellCycMod PI S Phase (assay number 15) (HeLa cells) [µM]	IC50/EC50, hFLT3 LANCE (assay number 35) (hFLT3) [µM]	IC50/EC50, Hela CellCycMod PI Cell Number (assay number 18) (HeLa cells) [µM]	WntCondMedia_Alk Phos C2C12 IC50/EC50 [2] [µM]	WntCondMedia_bCatenin C2C12 IC50/EC50 [3] [µM]	Hela CellCycMod PI 2N IC50/EC50 (HeLa cells) [µM]	Hela CellCycMod PI 4N IC50/EC50 (HeLa cells) [µM]	Hela CellCycMod PI MI IC50/EC50 (HeLa cells) [µM]	Hela CellCycMod PI Cell Number IC50/EC50 (HeLa cells) [µM]	also measured
COC(=O)Nc1nc2ccc(C(=O)c3cccs3)cc2[nH]1 [NCGC00015647-18]	19.89	> 20	> 20	0.0434	6.61	0.2351	0.0174	0.01755	0.01339	> 10	> 20								IC50/EC50, VEGF_ADSC\ECFC Angio Hoechst NucArea (assay number 3) [1]: > 10 µM; IC50/EC50, VEGF_ADSC\ECFC Angio CD31 TubeArea (assay number 2) [4]: 0.1018 µM
CCc1nc(N)nc(N)c1-c1ccc(Cl)cc1 [NCGC00016256-17]	> 20	> 20	> 20	0.0677	> 20	0.86	> 10	> 10	> 10	> 10	> 20	> 10							
CCN(CC)CCNc1ccc(CO)c2sc3ccccc3c(=O)c12 [NCGC00016622-08]	> 20	> 20	17.07	2.6738	> 20	> 20	5.6786	> 10	> 10	> 10	> 20	5.9199							IC50/EC50, VEGF_ADSC\ECFC Angio Hoechst NucArea (assay number 3) [1]: > 10 µM; IC50/EC50, VEGF_ADSC\ECFC Angio CD31 TubeArea (assay number 2) [4]: 8.3546 µM
COC(=O)Nc1nc2ccc(C(=O)c3ccccc3)cc2[nH]1 [NCGC00016806-13]	> 20	> 20	> 20	0.2454	1.43	1.7387	0.0761	0.08	0.0648		> 20	0.0542							IC50/EC50, VEGF_ADSC\ECFC Angio Hoechst NucArea (assay number 3) [1]: > 10 µM; IC50/EC50, VEGF_ADSC\ECFC Angio CD31 TubeArea (assay number 2) [4]: 0.3699 µM
CN1C[C@H](CNC(=O)OCc2ccccc2)C[C@@H]2c3cccc4c3c(cn4C)C[C@H]21 [NCGC00017257-14]				> 20		> 20													IC50/EC50, 5mMGluc_INS1E SecretionMod (assay number 8) (INS-1E cells): > 33.33 µM
C[n+]1c2cc(N)ccc2cc2ccc(N)cc21 [NCGC00178831-03]	> 20	> 20	6.57	1.5999	> 20	> 20	3.3946	> 10	2.194	1.9618	> 20	0.4722							
NC(N)=NN=C(/C=C/c1ccc([N+](=O)[O-])o1)/C=C/c1ccc([N+](=O)[O-])o1 [NCGC00181330-02]				0.372		> 20	> 10	> 10	> 10	> 10		> 10							IC50/EC50, Basal_Viability ATP DLD-1 (assay number 23) (DLD-1): > 20 µM; IC50/EC50, Basal_Viability ATP HT-29 (assay number 28) (HT-29): 0.003 µM; IC50/EC50, Basal_Viability ATP Colo 320 (assay number 27) (Colo320): 0.003 µM; IC50/EC50, Basal_Viability ATP RKO (assay number 29) (RKO): 0.0128 µM; IC50/EC50, Basal_Viability ATP SW480 (assay number 24) (SW480): 0.0076 µM; IC50/EC50, Basal_Viability ATP HCT116 (assay number 25) (HCT116): 0.1357 µM; IC50/EC50, GSK3b inh pretreated_Viability ATP HCT116 (assay number 26) ([5]; GSK3b inh pretreated): 0.0237 µM; IC50/EC50, Basal_Viability ATP SNU-C1 (assay number 30) (SNU-C1): 1.3539 µM
CCCN(CCC)C(=O)C(CCC(=O)OCCCN1CCN(CCOC(=O)Cc2c(C)n(C(=O)c3ccc(Cl)cc3)c3ccc(OC)cc23)CC1)NC(=O)c1ccccc1 (stereo not shown) [NCGC00183024-01]													13.2162	> 20	> 10	> 10	> 10	5.4844	hGSK3b LANCE IC50/EC50 (hGSK3b): > 20 µM; hJAK2 LANCE IC50/EC50 (hJAK2): > 20 µM; hp70S6K1 LANCE IC50/EC50 (hp70S6K1 (RPS6KB1)): > 20 µM; hKDR LANCE IC50/EC50 (hKDR): > 20 µM; hFLT3 LANCE IC50/EC50 (hFLT3): > 20 µM
COC(=O)[C@H]1[C@H]2C[C@@H]3c4[nH]c5cc(OC)ccc5c4CCN3C[C@H]2C[C@@H](OC(=O)/C=C/c2ccc(O)c(OC)c2)[C@@H]1OC [NCGC00253604-01]													10.4461	> 20	> 10	> 10	> 10	> 10	hGSK3b LANCE IC50/EC50 (hGSK3b): > 20 µM; hJAK2 LANCE IC50/EC50 (hJAK2): > 20 µM; hp70S6K1 LANCE IC50/EC50 (hp70S6K1 (RPS6KB1)): > 20 µM; hKDR LANCE IC50/EC50 (hKDR): > 20 µM; Hela CellCycMod PI S Phase IC50/EC50 (HeLa cells): > 10 µM; hFLT3 LANCE IC50/EC50 (hFLT3): > 20 µM
CCC1=C[C@@H]2CN(C1)Cc1c([nH]c3ccccc13)[C@@](C(=O)OC)(c1cc3c(cc1OC)N(C)[C@H]1[C@@](O)(C(=O)OC)[C@H](OC(C)=O)[C@]4(CC)C=CCN5CC[C@]31[C@@H]54)C2.O=C(O)C(O)C(O)C(=O)O.O=C(O)C(O)C(O)C(=O)O [NCGC00263568-01]													0.0101	0.0089					hGSK3b LANCE IC50/EC50 (hGSK3b): > 20 µM; VEGF_ADSC\ECFC Angio Hoechst NucArea IC50/EC50 [1]: > 10 µM; hJAK2 LANCE IC50/EC50 (hJAK2): > 20 µM; hp70S6K1 LANCE IC50/EC50 (hp70S6K1 (RPS6KB1)): > 20 µM; hKDR LANCE IC50/EC50 (hKDR): > 20 µM; VEGF_ADSC\ECFC Angio CD31 TubeArea IC50/EC50 [4]: 0.0055 µM; hFLT3 LANCE IC50/EC50 (hFLT3): > 20 µM
COc1cccc2c1C(=O)c1c(O)c3c(c(O)c1C2=O)C[C@@](O)(C(=O)CO)C[C@@H]3O[C@H]1C[C@H](N)[C@H](O[C@@H]2CCCCO2)[C@H](C)O1 [NCGC00344543-01]													3.9488	> 20	0.0795	0.08063	> 10	0.05143	VEGF_ADSC\ECFC Angio Hoechst NucArea IC50/EC50 [1]: 0.9949 µM; Basal_Viability ATP DLD-1 IC50/EC50 (DLD-1; assay number 23): 8.952 µM; Basal_Viability ATP HT-29 IC50/EC50 (HT-29): > 20 µM; Basal_Viability ATP Colo 320 IC50/EC50 (Colo320): 2.013 µM; VEGF_ADSC\ECFC Angio CD31 TubeArea IC50/EC50 [4]: 0.0063 µM; Basal_Viability ATP RKO IC50/EC50 (RKO): 1.01 µM; Hela CellCycMod PI S Phase IC50/EC50 (HeLa cells): 1.746 µM; Basal_Viability ATP SW480 IC50/EC50 (SW480; assay number 24): 7.822 µM; Basal_Viability ATP HCT116 IC50/EC50 (HCT116; assay number 25): 0.9107 µM; GSK3b inh pretreated_Viability ATP HCT116 IC50/EC50 [5]: 1.275 µM; Basal_Viability ATP SNU-C1 IC50/EC50 (SNU-C1): 9.2617 µM
CC[C@]1(O)C[C@@H]2CN(CCc3c([nH]c4ccccc34)[C@@](C(=O)OC)(c3cc4c(cc3OC)N(C)[C@H]3[C@@](O)(C(=O)OC)[C@H](OC(C)=O)[C@]5(CC)C=CCN6CC[C@]43[C@@H]65)C2)C1.O=S(=O)(O)O [NCGC00344583-01]													> 20	0.0035	0.0048	0.00483	0.00452	0.00521	VEGF_ADSC\ECFC Angio Hoechst NucArea IC50/EC50 [1]: > 10 µM; Basal_Viability ATP HT-29 IC50/EC50 (HT-29): 0.001 µM; Basal_Viability ATP Colo 320 IC50/EC50 (Colo320): 0.001 µM; VEGF_ADSC\ECFC Angio CD31 TubeArea IC50/EC50 [4]: 0.0026 µM; Basal_Viability ATP RKO IC50/EC50 (RKO): 0.001 µM; Hela CellCycMod PI S Phase IC50/EC50 (HeLa cells): > 10 µM; GSK3b inh pretreated_Viability ATP HCT116 IC50/EC50 [5]: 0.001 µM; Basal_Viability ATP SNU-C1 IC50/EC50 (SNU-C1): 0.001 µM
